Test results from ChEMBL document CHEMBL4507292 (2021).

Experiments:
[1] = target: Serine/threonine-protein kinase WNK2 (Homo sapiens) (UniProt Q9Y3S1); conditions: Compound concentration 1000.0 nM
[2] = test system: Phosphatidylinositol 4,5-bisphosphate 3-kinase catalytic subunit alpha isoform (Homo sapiens), P42336 [I800L]; conditions: Compound concentration 1000.0 nM
[3] = target: Serine/threonine-protein kinase 10 (Homo sapiens) (UniProt O94804); conditions: Compound concentration 1000.0 nM
[4] = target: Calcium/calmodulin-dependent protein kinase type 1B (Homo sapiens) (UniProt Q6P2M8); conditions: Compound concentration 1000.0 nM
[5] = target: Serine/threonine-protein kinase PAK 6 (Homo sapiens) (UniProt Q9NQU5); conditions: Compound concentration 1000.0 nM
[6] = target: Ephrin type-A receptor 8 (Homo sapiens) (UniProt P29322); conditions: Compound concentration 1000.0 nM
[7] = target: Cyclin-dependent kinase 19 (Homo sapiens) (UniProt Q9BWU1); conditions: Compound concentration 1000.0 nM
[8] = target: Serine/threonine-protein kinase MARK2 (Homo sapiens) (UniProt Q7KZI7); conditions: Compound concentration 1000.0 nM
[9] = target: Mitogen-activated protein kinase 8 (Homo sapiens) (UniProt P45983); conditions: Compound concentration 1000.0 nM
[10] = target: Cyclin-dependent kinase-like 5 (Homo sapiens) (UniProt O76039); conditions: Compound concentration 1000.0 nM
[11] = target: Phosphatidylinositol 4-phosphate 5-kinase type-1 gamma (Homo sapiens) (UniProt O60331); conditions: Compound concentration 1000.0 nM
[12] = target: Dual serine/threonine and tyrosine protein kinase (Homo sapiens) (UniProt Q6XUX3); conditions: Compound concentration 1000.0 nM
[13] = test system: Epidermal growth factor receptor (Homo sapiens), P00533 [L861Q]; conditions: Compound concentration 1000.0 nM
[14] = target: Tyrosine-protein kinase Mer (Homo sapiens) (UniProt Q12866); conditions: Compound concentration 1000.0 nM
[15] = target: Mitogen-activated protein kinase kinase kinase 7 (Homo sapiens) (UniProt O43318); conditions: Compound concentration 1000.0 nM
[16] = target: NUAK family SNF1-like kinase 2 (Homo sapiens) (UniProt Q9H093); conditions: Compound concentration 1000.0 nM
D(1A) dopamine receptor = D(1A) dopamine receptor (Homo sapiens, UniProt P21728); assay: GPCRScan assay: inhibition of D1; design: radioligand conc. used [nm] 0.6 – 1.3, parental cells HEKT
[17] = target: cAMP-dependent protein kinase catalytic subunit beta (Homo sapiens) (UniProt P22694); conditions: Compound concentration 1000.0 nM
[18] = target: Bone morphogenetic protein receptor type-2 (Homo sapiens) (UniProt Q13873); conditions: Compound concentration 1000.0 nM
[19] = target: Wee1-like protein kinase 2 (Homo sapiens) (UniProt P0C1S8); conditions: Compound concentration 1000.0 nM
[20] = target: Tyrosine-protein kinase Fes/Fps (Homo sapiens) (UniProt P07332); conditions: Compound concentration 1000.0 nM
[21] = target: Serine/threonine-protein kinase 33 (Homo sapiens) (UniProt Q9BYT3); conditions: Compound concentration 1000.0 nM
[22] = target: Calcium-dependent protein kinase 1 (Plasmodium falciparum) (UniProt P62344); conditions: Compound concentration 1000.0 nM
[23] = target: RAF proto-oncogene serine/threonine-protein kinase (Homo sapiens) (UniProt P04049); conditions: Compound concentration 1000.0 nM
[24] = test system: Phosphatidylinositol 4,5-bisphosphate 3-kinase catalytic subunit alpha isoform (Homo sapiens), P42336 [E545K]; conditions: Compound concentration 1000.0 nM
[25] = target: Delta-type opioid receptor (Homo sapiens) (UniProt P41143); conditions: Compound concentration 10.0 uM
[26] = target: Phosphatidylinositol 5-phosphate 4-kinase type-2 gamma (Homo sapiens) (UniProt Q8TBX8); conditions: Compound concentration 1000.0 nM
[27] = target: Ephrin type-A receptor 4 (Homo sapiens) (UniProt P54764); conditions: Compound concentration 1000.0 nM
[28] = target: Serine/threonine-protein kinase NIM1 (Homo sapiens) (UniProt Q8IY84); conditions: Compound concentration 1000.0 nM
[29] = target: TRAF2 and NCK-interacting protein kinase (Homo sapiens) (UniProt Q9UKE5); conditions: Compound concentration 1000.0 nM
[30] = target: Calcium/calmodulin-dependent protein kinase kinase 1 (Homo sapiens) (UniProt Q8N5S9); conditions: Compound concentration 1000.0 nM
[31] = test system: ALK tyrosine kinase receptor (Homo sapiens), Q9UM73 [L1196M]; conditions: Compound concentration 1000.0 nM
[32] = target: Ribosomal protein S6 kinase alpha-4 (Homo sapiens) (UniProt O75676); conditions: Compound concentration 1000.0 nM
[33] = test system: eIF-2-alpha kinase GCN2 (Homo sapiens), Q9P2K8 [S808G]; conditions: Compound concentration 1000.0 nM
[34] = target: Interleukin-1 receptor-associated kinase 4 (Homo sapiens) (UniProt Q9NWZ3); conditions: Compound concentration 1000.0 nM
[35] = target: Calcium/calmodulin-dependent protein kinase type 1D (Homo sapiens) (UniProt Q8IU85); conditions: Compound concentration 1000.0 nM
[36] = target: Megakaryocyte-associated tyrosine-protein kinase (Homo sapiens) (UniProt P42679); conditions: Compound concentration 1000.0 nM
[37] = target: Myotonin-protein kinase (Homo sapiens) (UniProt Q09013); conditions: Compound concentration 1000.0 nM
[38] = target: Mitogen-activated protein kinase kinase kinase 6 (Homo sapiens) (UniProt O95382); conditions: Compound concentration 1000.0 nM
[39] = test system: Tyrosine-protein kinase ABL1 (Homo sapiens), P00519 [H396P]; conditions: Compound concentration 1000.0 nM
[40] = target: Serine/threonine-protein kinase SIK3 (Homo sapiens) (UniProt Q9Y2K2); conditions: Compound concentration 1000.0 nM
[41] = target: Tyrosine-protein kinase JAK1 (Homo sapiens) (UniProt P23458); conditions: Compound concentration 1000.0 nM
[42] = target: Tyrosine-protein kinase Fer (Homo sapiens) (UniProt P16591); conditions: Compound concentration 1000.0 nM
[43] = target: Cyclin-dependent kinase 13 (Homo sapiens) (UniProt Q14004); conditions: Compound concentration 1000.0 nM
[44] = target: Ephrin type-B receptor 4 (Homo sapiens) (UniProt P54760); conditions: Compound concentration 1000.0 nM
Ephrin type-B receptor 4 (Homo sapiens), sequence (P54760 whole entry): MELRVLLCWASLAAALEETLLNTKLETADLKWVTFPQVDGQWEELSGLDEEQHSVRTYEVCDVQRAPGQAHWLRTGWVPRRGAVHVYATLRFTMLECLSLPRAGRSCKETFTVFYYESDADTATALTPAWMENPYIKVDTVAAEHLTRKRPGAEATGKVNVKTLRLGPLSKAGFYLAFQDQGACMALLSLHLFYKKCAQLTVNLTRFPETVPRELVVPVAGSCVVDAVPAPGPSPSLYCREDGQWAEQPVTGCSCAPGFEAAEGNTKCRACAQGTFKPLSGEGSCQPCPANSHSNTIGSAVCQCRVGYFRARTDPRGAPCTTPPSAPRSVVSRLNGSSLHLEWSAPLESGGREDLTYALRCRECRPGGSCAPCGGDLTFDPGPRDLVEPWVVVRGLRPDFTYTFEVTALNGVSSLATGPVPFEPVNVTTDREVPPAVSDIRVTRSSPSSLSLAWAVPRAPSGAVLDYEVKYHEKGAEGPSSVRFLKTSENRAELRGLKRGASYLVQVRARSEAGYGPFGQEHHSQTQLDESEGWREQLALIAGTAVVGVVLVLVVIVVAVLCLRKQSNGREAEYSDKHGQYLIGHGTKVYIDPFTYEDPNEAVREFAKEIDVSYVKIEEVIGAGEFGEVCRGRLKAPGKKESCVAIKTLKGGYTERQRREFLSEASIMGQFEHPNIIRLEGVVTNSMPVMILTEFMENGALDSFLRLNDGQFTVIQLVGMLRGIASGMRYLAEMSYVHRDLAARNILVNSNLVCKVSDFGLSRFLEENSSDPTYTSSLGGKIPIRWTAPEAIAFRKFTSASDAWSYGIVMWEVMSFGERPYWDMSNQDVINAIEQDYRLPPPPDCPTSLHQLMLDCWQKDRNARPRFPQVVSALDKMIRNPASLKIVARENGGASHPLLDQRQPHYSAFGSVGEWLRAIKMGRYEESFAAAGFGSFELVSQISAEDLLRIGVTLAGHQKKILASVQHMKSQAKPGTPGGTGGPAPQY

Tyrosine-protein kinase JAK1 (Homo sapiens), sequence (P23458 whole entry): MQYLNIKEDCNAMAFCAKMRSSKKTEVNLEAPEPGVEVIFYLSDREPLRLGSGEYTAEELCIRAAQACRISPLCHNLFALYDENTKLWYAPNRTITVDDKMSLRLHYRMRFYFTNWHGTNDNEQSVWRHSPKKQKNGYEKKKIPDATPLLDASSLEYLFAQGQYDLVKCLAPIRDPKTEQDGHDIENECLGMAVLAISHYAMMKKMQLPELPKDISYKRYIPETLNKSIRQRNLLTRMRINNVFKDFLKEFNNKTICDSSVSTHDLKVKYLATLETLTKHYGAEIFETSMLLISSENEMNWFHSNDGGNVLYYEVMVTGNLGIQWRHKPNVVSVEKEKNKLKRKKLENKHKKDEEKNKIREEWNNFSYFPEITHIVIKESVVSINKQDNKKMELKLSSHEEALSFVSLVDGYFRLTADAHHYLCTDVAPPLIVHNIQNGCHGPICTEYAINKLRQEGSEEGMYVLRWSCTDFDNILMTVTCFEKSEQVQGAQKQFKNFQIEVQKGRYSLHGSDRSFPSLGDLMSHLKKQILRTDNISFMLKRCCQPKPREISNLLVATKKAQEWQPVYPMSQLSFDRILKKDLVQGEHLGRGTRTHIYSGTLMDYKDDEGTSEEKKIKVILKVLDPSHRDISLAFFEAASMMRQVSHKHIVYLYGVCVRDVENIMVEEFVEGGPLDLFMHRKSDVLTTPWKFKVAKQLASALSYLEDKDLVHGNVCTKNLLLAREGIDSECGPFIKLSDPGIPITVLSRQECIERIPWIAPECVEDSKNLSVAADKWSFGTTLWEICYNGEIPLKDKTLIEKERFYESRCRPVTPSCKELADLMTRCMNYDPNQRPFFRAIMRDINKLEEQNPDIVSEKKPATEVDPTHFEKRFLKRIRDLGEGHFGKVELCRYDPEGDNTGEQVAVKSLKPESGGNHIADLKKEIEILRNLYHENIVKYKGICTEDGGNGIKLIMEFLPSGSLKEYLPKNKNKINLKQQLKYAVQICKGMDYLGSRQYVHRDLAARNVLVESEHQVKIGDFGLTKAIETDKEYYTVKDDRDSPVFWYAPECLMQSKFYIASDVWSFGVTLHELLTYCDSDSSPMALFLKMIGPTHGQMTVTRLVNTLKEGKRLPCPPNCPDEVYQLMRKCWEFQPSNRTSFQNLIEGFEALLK
Calcium/calmodulin-dependent protein kinase type 1B (Homo sapiens), sequence (Q6P2M8 whole entry): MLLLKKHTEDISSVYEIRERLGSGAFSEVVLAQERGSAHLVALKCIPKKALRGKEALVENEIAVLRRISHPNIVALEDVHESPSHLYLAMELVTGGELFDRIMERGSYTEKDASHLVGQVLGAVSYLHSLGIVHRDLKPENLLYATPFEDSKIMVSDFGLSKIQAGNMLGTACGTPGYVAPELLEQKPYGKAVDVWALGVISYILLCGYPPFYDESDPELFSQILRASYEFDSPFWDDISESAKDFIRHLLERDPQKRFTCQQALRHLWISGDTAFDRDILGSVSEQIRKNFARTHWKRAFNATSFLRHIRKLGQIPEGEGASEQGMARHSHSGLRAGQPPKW
D(1A) dopamine receptor, sequence (P21728 whole entry): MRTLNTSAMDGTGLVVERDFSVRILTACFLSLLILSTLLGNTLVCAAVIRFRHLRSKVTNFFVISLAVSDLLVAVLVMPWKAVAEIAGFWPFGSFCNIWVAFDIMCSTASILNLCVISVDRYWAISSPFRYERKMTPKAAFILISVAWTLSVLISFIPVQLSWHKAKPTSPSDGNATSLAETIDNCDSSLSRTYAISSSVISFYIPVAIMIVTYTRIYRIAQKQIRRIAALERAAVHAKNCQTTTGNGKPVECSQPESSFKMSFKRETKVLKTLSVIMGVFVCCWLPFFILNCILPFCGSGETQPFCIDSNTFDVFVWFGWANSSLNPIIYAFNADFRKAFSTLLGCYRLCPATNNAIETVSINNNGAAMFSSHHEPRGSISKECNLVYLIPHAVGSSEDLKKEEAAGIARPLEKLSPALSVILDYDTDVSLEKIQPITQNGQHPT
Phosphatidylinositol 4,5-bisphosphate 3-kinase catalytic subunit alpha isoform (Homo sapiens), P42336 [I800L], sequence (P42336 whole entry I800L, canonical isoform): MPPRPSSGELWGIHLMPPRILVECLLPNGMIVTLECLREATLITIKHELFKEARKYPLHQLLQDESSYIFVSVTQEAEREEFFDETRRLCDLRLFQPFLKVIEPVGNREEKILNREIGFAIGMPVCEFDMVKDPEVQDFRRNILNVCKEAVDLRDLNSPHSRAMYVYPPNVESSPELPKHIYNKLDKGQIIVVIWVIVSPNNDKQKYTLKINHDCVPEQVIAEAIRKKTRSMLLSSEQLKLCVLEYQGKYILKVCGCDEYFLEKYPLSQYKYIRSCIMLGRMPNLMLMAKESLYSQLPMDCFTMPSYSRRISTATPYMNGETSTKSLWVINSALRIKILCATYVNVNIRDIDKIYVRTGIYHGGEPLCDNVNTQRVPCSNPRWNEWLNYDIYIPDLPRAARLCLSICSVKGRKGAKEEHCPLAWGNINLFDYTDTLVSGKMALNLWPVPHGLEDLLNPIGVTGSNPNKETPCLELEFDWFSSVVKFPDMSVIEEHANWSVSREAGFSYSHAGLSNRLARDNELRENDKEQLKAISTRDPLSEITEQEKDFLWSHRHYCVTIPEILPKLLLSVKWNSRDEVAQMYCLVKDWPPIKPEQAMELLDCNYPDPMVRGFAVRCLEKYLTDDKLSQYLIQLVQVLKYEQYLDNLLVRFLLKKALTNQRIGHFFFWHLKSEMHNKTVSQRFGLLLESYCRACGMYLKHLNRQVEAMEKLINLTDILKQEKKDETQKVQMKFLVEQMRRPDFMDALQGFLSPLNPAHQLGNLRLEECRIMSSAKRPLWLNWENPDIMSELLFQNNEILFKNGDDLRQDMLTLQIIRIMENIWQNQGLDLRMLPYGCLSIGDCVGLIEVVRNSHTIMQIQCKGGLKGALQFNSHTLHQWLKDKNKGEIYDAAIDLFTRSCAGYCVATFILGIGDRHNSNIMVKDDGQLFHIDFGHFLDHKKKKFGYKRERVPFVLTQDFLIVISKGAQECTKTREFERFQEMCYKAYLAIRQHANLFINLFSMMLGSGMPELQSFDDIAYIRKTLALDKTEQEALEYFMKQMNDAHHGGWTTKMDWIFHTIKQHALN
Ephrin type-A receptor 8 (Homo sapiens), sequence (P29322 whole entry): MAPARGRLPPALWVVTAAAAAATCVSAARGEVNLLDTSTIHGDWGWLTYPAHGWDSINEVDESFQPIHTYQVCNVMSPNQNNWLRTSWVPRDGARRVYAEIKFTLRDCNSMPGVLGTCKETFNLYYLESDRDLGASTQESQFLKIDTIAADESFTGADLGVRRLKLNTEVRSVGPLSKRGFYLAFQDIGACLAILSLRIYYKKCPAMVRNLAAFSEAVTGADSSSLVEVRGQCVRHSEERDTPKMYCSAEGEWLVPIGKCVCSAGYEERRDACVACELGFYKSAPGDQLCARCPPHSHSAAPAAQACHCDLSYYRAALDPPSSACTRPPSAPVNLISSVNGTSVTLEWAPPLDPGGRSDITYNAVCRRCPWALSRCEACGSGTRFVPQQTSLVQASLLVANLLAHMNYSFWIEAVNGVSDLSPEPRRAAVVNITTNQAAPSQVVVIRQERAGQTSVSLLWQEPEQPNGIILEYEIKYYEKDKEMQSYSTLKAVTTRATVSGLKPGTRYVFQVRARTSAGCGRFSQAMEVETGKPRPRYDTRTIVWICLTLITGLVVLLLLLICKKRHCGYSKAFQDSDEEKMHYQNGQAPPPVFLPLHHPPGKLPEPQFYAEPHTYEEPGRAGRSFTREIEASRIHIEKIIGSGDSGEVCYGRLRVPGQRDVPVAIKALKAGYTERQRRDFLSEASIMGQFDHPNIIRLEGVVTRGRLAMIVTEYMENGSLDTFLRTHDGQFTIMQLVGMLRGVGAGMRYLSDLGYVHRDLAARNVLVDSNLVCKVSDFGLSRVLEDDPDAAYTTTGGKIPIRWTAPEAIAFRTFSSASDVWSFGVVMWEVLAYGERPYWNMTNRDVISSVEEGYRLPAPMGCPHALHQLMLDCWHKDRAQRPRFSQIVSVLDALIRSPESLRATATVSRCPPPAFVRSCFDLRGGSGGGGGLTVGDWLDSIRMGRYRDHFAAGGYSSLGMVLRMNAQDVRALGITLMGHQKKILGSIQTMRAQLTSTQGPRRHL
Phosphatidylinositol 4,5-bisphosphate 3-kinase catalytic subunit alpha isoform (Homo sapiens), P42336 [E545K], sequence (P42336 whole entry E545K, canonical isoform): as the sequence (P42336 whole entry I800L, canonical isoform) above, with E545K, L800I counted along it

Structure (SMILES): Cc1c(C(=O)O)cc(-c2ccc(C3CCNCC3)cc2)c2ccc(-c3ccc(C(F)(F)F)cc3)cc12 [PPTN-NC]
- residual activity [1]: 100%
- residual activity [2]: 100%
- residual activity [3]: 100%
- residual activity [4]: 100%
- residual activity [5]: 100%
- residual activity [6]: 100%
- residual activity [7]: 100%
- residual activity [8]: 100%
- residual activity [9]: 100%
- residual activity [10]: 100%
- residual activity [11]: 98%
- residual activity [12]: 100%
- residual activity [13]: 100%
- residual activity [14]: 91%
- residual activity [15]: 100%
- residual activity [16]: 100%
- Ki (D(1A) dopamine receptor): 2.15 µM
- residual activity [17]: 84%
- residual activity [18]: 100%
- residual activity [19]: 100%
- residual activity [20]: 100%
- residual activity [21]: 100%
- residual activity [22]: 100%
- residual activity [23]: 80%
- residual activity [24]: 89%
- inhibition [25]: 32%
- residual activity [26]: 100%
- residual activity [27]: 100%
- residual activity [28]: 92%
- residual activity [29]: 100%
- residual activity [30]: 100%
- residual activity [31]: 100%
- residual activity [32]: 100%
- residual activity [33]: 100%
- residual activity [34]: 100%
- residual activity [35]: 100%
- residual activity [36]: 100%
- residual activity [37]: 86%
- residual activity [38]: 100%
- residual activity [39]: 99%
- residual activity [40]: 100%
- residual activity [41]: 79%
- residual activity [42]: 100%
- residual activity [43]: 100%
- residual activity [44]: 100%

Structure (SMILES): O=C(O)c1cc(-c2ccc(C3CCNCC3)cc2)c2ccc(-c3ccc(C(F)(F)F)cc3)cc2c1 [PPTN]
- residual activity [1]: 100%
- residual activity [2]: 93%
- residual activity [3]: 100%
- residual activity [4]: 100%
- residual activity [5]: 100%
- residual activity [6]: 100%
- residual activity [7]: 97%
- residual activity [8]: 100%
- residual activity [9]: 100%
- residual activity [10]: 100%
- residual activity [11]: 100%
- residual activity [12]: 100%
- residual activity [13]: 100%
- residual activity [14]: 85%
- residual activity [15]: 100%
- residual activity [16]: 100%
- Ki (D(1A) dopamine receptor): 10 µM
- residual activity [17]: 100%
- residual activity [18]: 100%
- residual activity [19]: 100%
- residual activity [20]: 100%
- residual activity [21]: 100%
- residual activity [22]: 100%
- residual activity [23]: 70%
- residual activity [24]: 100%
- inhibition [25]: 36.4%
- residual activity [26]: 100%
- residual activity [27]: 100%
- residual activity [28]: 94%
- residual activity [29]: 100%
- residual activity [30]: 100%
- residual activity [31]: 100%
- residual activity [32]: 100%
- residual activity [33]: 100%
- residual activity [34]: 100%
- residual activity [35]: 100%
- residual activity [36]: 100%
- residual activity [37]: 100%
- residual activity [38]: 100%
- residual activity [39]: 86%
- residual activity [40]: 100%
- residual activity [41]: 87%
- residual activity [42]: 100%
- residual activity [43]: 100%
- residual activity [44]: 100%
